Measured values: PubChem BioAssay AID192 (DTP/NCI, 2004)
Several values for one entry are separate records, joined by “and”; a condition that tells them apart may be missing. Equal entries are not always repeated. Inconclusive results and toxic doses are left out.

Test system: BDF1 mice, B16 melanoma ip, median survival T/C
Assay: NCI In Vivo Anticancer Drug Screen. Data for tumor model B16 Melanoma (intraperitoneal) in B6D2F1 (BDF1) mice
Conditions: endpoint: median survival time, higher = longer survival
Method in brief: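 In this screen, activity was judged from survival or tumor size in treated versus vehicle-treated tumor-bearing mice, reported as T/C.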

[1] = dose: 100.0 mg/kg/injection, schedule: Q01DX009 (ip), vehicle: saline with Tween-80

CC(=N\O)/C(C)=N/O.CC(=N\O)/C(C)=N/O.CC(=N\O)/C(C)=N/O.CC(=N\O)/C(C)=N/O.[CH3-].[CH3-].[Co].[Co]
T/C (dose: 25.0 mg/kg/injection, schedule: Q01DX009 (ip), vehicle: Klucel (hydroxypropylcellulose) (HPC)): 107 % of control | T/C (dose: 50.0 mg/kg/injection, schedule: Q01DX009 (ip), vehicle: Klucel (hydroxypropylcellulose) (HPC)): 90 % of control | T/C (dose: 100.0 mg/kg/injection, schedule: Q01DX009 (ip), vehicle: Klucel (hydroxypropylcellulose) (HPC)): 100 % of control

CCC1CC2CN(CCc3c([nH]c4ccccc34)C(C(=O)OC)(c3cc4c(cc3OC)N(C)C3C(O)(C(=O)OC)C(OC(C)=O)C5(CC)C=CCN6CCC43C65)C2)C1 (centres undefined)
T/C (dose: 0.05 mg/kg/injection, schedule: Q01DX009 (ip), vehicle: Klucel (hydroxypropylcellulose) (HPC)): 111 % of control | T/C (dose: 0.06 mg/kg/injection, schedule: Q01DX009 (ip), vehicle: water): 109 % of control and 110 % of control | T/C (dose: 0.13 mg/kg/injection, schedule: Q01DX009 (ip), vehicle: water): 105 % of control and 114 % of control | T/C (dose: 0.25 mg/kg/injection, schedule: Q01DX009 (ip), vehicle: water): 173 % of control | T/C (dose: 0.4 mg/kg/injection, schedule: Q01DX009 (ip), vehicle: Klucel (hydroxypropylcellulose) (HPC)): 192 % of control | T/C (dose: 0.5 mg/kg/injection, schedule: Q01DX009 (ip), vehicle: water): 210 % of control | T/C (dose: 0.5 mg/kg/injection, schedule: Q04DX003 (ip), vehicle: water): 166 % of control | T/C (dose: 0.8 mg/kg/injection, schedule: Q01DX009 (ip), vehicle: Klucel (hydroxypropylcellulose) (HPC)): 224 % of control | T/C (dose: 1.0 mg/kg/injection, schedule: Q01DX009 (ip), vehicle: water): 151 % of control and 163 % of control and 174 % of control | T/C (dose: 1.0 mg/kg/injection, schedule: Q04DX003 (ip), vehicle: water): 206 % of control | T/C (dose: 1.6 mg/kg/injection, schedule: Q01DX009 (ip), vehicle: Klucel (hydroxypropylcellulose) (HPC)): 229 % of control | T/C (dose: 2.0 mg/kg/injection, schedule: Q01DX009 (ip), vehicle: water): 170 % of control and 178 % of control | T/C (dose: 2.0 mg/kg/injection, schedule: Q04DX003 (ip), vehicle: water): 234 % of control

O=C(Nc1cccc([N+](=O)[O-])c1)c1cc2ccccc2cc1O
T/C [1]: 110 % of control | T/C (dose: 200.0 mg/kg/injection, schedule: Q01DX009 (ip), vehicle: saline with Tween-80): 107 % of control | T/C (dose: 400.0 mg/kg/injection, schedule: Q01DX009 (ip), vehicle: saline with Tween-80): 105 % of control

NC1=NC(=S)C2N=C(N=Nc3ccc(C(=O)NC(CCC(=O)O)C(=O)O)cc3)N=C2N1 (centres undefined)
T/C (dose: 0.09 mg/kg/injection, schedule: Q01DX009 (ip), vehicle: Klucel (hydroxypropylcellulose) (HPC)): 100 % of control | T/C (dose: 0.19 mg/kg/injection, schedule: Q01DX009 (ip), vehicle: Klucel (hydroxypropylcellulose) (HPC)): 107 % of control | T/C (dose: 0.39 mg/kg/injection, schedule: Q01DX009 (ip), vehicle: Klucel (hydroxypropylcellulose) (HPC)): 111 % of control | T/C (dose: 0.78 mg/kg/injection, schedule: Q01DX009 (ip), vehicle: Klucel (hydroxypropylcellulose) (HPC)): 107 % of control | T/C (dose: 1.56 mg/kg/injection, schedule: Q01DX009 (ip), vehicle: Klucel (hydroxypropylcellulose) (HPC)): 89 % of control

Nc1ccc(N=Nc2ccc(S(=O)(=O)O)cc2)cc1
T/C (dose: 25.0 mg/kg/injection, schedule: Q01DX009 (ip), vehicle: saline with Tween-80): 93 % of control | T/C (dose: 50.0 mg/kg/injection, schedule: Q01DX009 (ip), vehicle: saline with Tween-80): 97 % of control | T/C [1]: 90 % of control and 104 % of control

CC(C)(C)OC(=O)N1CCCC1C(=O)N1CCCC1C(=O)Oc1ccccc1 (centres undefined)
T/C (dose: 100.0 mg/kg/injection, schedule: Q01DX009 (ip), vehicle: saline): 121 % of control | T/C (dose: 200.0 mg/kg/injection, schedule: Q01DX009 (ip), vehicle: saline): 110 % of control | T/C (dose: 400.0 mg/kg/injection, schedule: Q01DX009 (ip), vehicle: saline): 114 % of control

O=NNc1cnccn1
T/C (dose: 25.0 mg/kg/injection, schedule: Q01DX009 (ip), vehicle: water): 164 % of control

C=CC(=O)O
T/C (dose: 3.13 mg/kg/injection, schedule: Q01DX009 (ip), vehicle: saline): 112 % of control | T/C (dose: 6.25 mg/kg/injection, schedule: Q01DX009 (ip), vehicle: saline): 114 % of control | T/C (dose: 12.5 mg/kg/injection, schedule: Q01DX009 (ip), vehicle: saline): 114 % of control

CC1NC(=O)C2Cc3ccc(O)c(c3)Oc3ccc(cc3)C(O)C(C(=O)N2C)N(C)C(=O)C(C)NC(=O)C(Cc2ccc(O)cc2)N(C)C(=O)C(C)NC1=O (centres undefined)
T/C (dose: 1.0 mg/kg/injection, schedule: Q01DX009 (ip), vehicle: saline with Tween-80): 97 % of control | T/C (dose: 2.0 mg/kg/injection, schedule: Q01DX009 (ip), vehicle: saline with Tween-80): 91 % of control | T/C (dose: 4.0 mg/kg/injection, schedule: Q01DX009 (ip), vehicle: saline with Tween-80): 99 % of control | T/C (dose: 8.0 mg/kg/injection, schedule: Q01DX009 (ip), vehicle: saline with Tween-80): 96 % of control | T/C (dose: 16.0 mg/kg/injection, schedule: Q01DX009 (ip), vehicle: saline with Tween-80): 94 % of control
